# Test results reported in US20210386828A1, “METHODS FOR ENHANCING CANCER IMMUNOTHERAPY” (The Regents of the University of California, priority 2018, published 2021).
# Key:
# [1] = Cell death in vitro at the low Oxali dose; type: cell-based; settings: Oxali dose used in the experiments (low dose)
# Excerpt: Thus, for purposed of this disclosure, the term “low dose” may include a non-ICD amount of a cytostatic agent or a platinoid.
# In the past, Oxali was studied as a prototype of anticancer drugs that are capable of inducing immunogenic cell death (ICD) and T-cell priming (Galluzzi et al., 2015). However, the exact mechanism of ICD induction is poorly defined, and it is not clear whether Oxali and similar drugs exert their immunogenic activity solely via ICD. Other studies have reported Oxali and several other platinoids to function as inducers of the integrated stress response (ISR) (Bruno et al., 2017; Kepp et al., 2015). Nevertheless, the mechanism of ISR activation by platinoids and its relevance for their immunostimulatory activity is unknown. […] Oxali treatment also results in induction of Interferon gamma receptor 2 (IFNγR2), through NF-κB signaling, which potentiates the response of MHC-I-expressing cancer cells to IFNγ produced by CD8^+ T cells that have been reinvigorated by ICI administration.
# [2] = tested on: Myc-CaP and TRAMP-C2 cells; assay: RNA-seq of mouse PCa cells incubated with platinoids; type: cell-based
# Experimental: FIGS. 1E-1G show total RNA from Myc-CaP cells incubated with indicated agents for 24 hr was subjected to RNA-seq. Top 20 hallmark gene sets were sorted by normalized enrichment score (NES). Immune-related gene sets are in blue (IFNγ signaling in light blue).
# The top 20 hallmark gene sets sorted by normalized enrichment score (NES) are shown to depict the Oxali- and Cis-induced responses determined by GSEA analysis. Immune-related gene sets are colored blue (IFNγ signaling in light blue). […] Immune-related gene sets are in blue (IFNγ signaling in light blue).
# To investigate how low-dose Oxali affects the PCa transcriptome, RNA sequencing (RNA-seq) was conducted on mouse PCa cells (Myc-CaP and TRAMP-C2) incubated with 2 μM of either Oxali or Cisplatin (Cis), a platinoid that, unlike Oxali, minimally enhances the response to PD-L1 blockade or ISP ablation (Pfirschke et al., 2016; Shalapour et al., 2015).
# Myc-CaP cells [3] = assay: qRT-PCR of MHC-I component mRNAs in Myc-CaP cells; type: cell-based, mouse
# Excerpt: Each dot represents an experiment and horizontal lines denote the median.
# Myc-CaP cells [4] = assay: Nuclear abundance of transcription factors (IB, flow cytometry); type: cell-based, mouse; settings: 2 μM Oxali
# s.c. Myc-CaP tumors = assay: qRT-PCR of total tumor RNA from treated mice; type: in vivo, mouse; settings: low-dose
# Experimental: FIGS. 7A-7G are pictorial and graphical diagrams showing that IFNγR2 induction is needed for the Oxali-potentiated response to anti-PDL1 therapy. […] After four treatment cycles, during which tumor size was measured, the mice were euthanized and analyzed. Significance was determined by Mann-Whitney and t-tests. Transient Cas9 expression was used to avoid any immune response to Cas9-molecules.
# The synergistic inhibition of Myc-CaP tumor growth by Oxali+anti-PD-L1 was attenuated by IFNγR2 ablation (FIGS. 7A and 14E). […] Importantly, Psmb9, Tap1, and Nlrc5 induction by Oxali+anti-PD-L1 was almost completely abolished after IFNγR2 ablation in Myc-CaP cells (FIGS. 7C and 14F). Oxali+anti-PD-L1 induced MHC-I (H-2Kq and H-2Dd) surface expression by tumor cells, which was also abolished by IFNγR2 ablation (FIG. 7D). Oxali+anti-PD-L1 had no effect on surface MHC-I (H-2Kq) or PD-L1 expression by tumor-infiltrating CD11b^+ myeloid cells in vivo (FIGS. 14G and 14H). […] Thus, Oxali-induced upregulation of MHC-I genes in malignant cells is important for the final recognition and killing stage of the cancer-immunity cycle (Chen and Mellman, 2013) but has no role in ICI-induced CTL reinvigoration.
# [5] = tested on: PC3, WM793, MIA PaCa-2, NSCLC and melanoma cell lines
# Experimental: The stained cells were examined by indirect immunofluorescence. […] Surface HLA-ABC expression was determined by flow cytometry.
smiles,measurement,setting,value
"O=C1[O][Pt]2([NH][C@@H]3CCCC[C@H]3[NH]2)[O]C1=O [Oxali, oxaliplatin]",cell death in vitro,[1],10-15%
same,induction of gene set responsive to NF-κB-dependent TNF signaling,"[2]; 2 μM, Myc-CaP",strongly induced
same,induction of IFNγ responsive gene set,"[2]; 2 μM, compared with Cis",considerably stronger induction
same,induction of genes of the MHC-I antigen processing and presentation machinery,"[2]; low-dose, Myc-CaP",strongly induced
same,"induction of Nlrc5, Psmb9, Tap1, Ifngr2, Tapasin, and Erap1 mRNAs","Myc-CaP cells [3]; 2 μM (Oxali and Cis) or 4 μM (Carbo), among the three platinoids",most efficient induction
same,Ifngr2 gene expression,Myc-CaP cells [3]; Myc-CaP cells,induced
same,effect of exogenous IFNγ on induction of MHC-I antigen presentation and processing genes by the platinoid,Myc-CaP cells [3]; plus IFNγ,strongly potentiated by exogenous IFNγ
same,"nuclear abundance of p65, NF-κB, CREB1, ATF3, P-ATM and JunB",Myc-CaP cells [4],persistent increases
same,"expression of Ifngr2, Psmb9, Tap1, and Nlrc5 mRNAs in tumors",s.c. Myc-CaP tumors,enhanced expression
same,HLA-ABC surface expression,[5]; MIA PaCa-2 cells,induced HLA-ABC surface expression
same,"Psmb9 and Ifngr2 induction, BRAF (V600E) versus activated NRAS melanoma cells",[5]; panel of human melanoma cell lines,much more responsive
